Key:
[1] = Inhibition of thioredoxin-conjugated PolyQ-62 protein aggregation expressed in Escherichia coli DH5alpha at 20 uM relative to control
[2] = Inhibition of thioredoxin-conjugated PolyQ-62 protein aggregation expressed in Escherichia coli DH5alpha

Compound | inhibition [1] [%] | IC50 [2] [µM]
CC[C@H](C)[C@H](NC(=O)CNC(=O)[C@@H]1CCCN1C(=O)[C@H](Cc1c[nH]c2ccccc12)NC(=O)[C@H](Cc1c[nH]c2ccccc12)NC(=O)[C@H](CCCCN)NC(=O)[C@H](Cc1c[nH]c2ccccc12)NC(=O)[C@H](CC(N)=O)NC(=O)[C@H](CO)NC(C)=O)C(=O)N[C@@H](Cc1ccccc1)C(=O)N[C@H](CC(=O)O)C(N)=O | 77.2 | 5
CC[C@H](C)[C@H](NC(=O)CNC(=O)[C@@H]1CCCN1C(=O)[C@H](Cc1c[nH]c2ccccc12)NC(=O)[C@H](Cc1c[nH]c2ccccc12)NC(=O)[C@H](CCCCN)NC(=O)[C@H](Cc1c[nH]c2ccccc12)NC(=O)[C@H](CC(N)=O)NC(=O)[C@H](CO)NC(C)=O)C(=O)N[C@H](Cc1ccccc1)C(=O)N[C@@H](CC(=O)O)C(N)=O | 65.3 | > 20
CC[C@H](C)[C@H](NC(=O)CNC(=O)[C@@H]1CCCN1C(=O)[C@H](Cc1c[nH]c2ccccc12)NC(=O)[C@H](Cc1c[nH]c2ccccc12)NC(=O)[C@H](CCCCN)NC(=O)[C@H](Cc1c[nH]c2ccccc12)NC(=O)[C@H](CC(N)=O)NC(=O)[C@H](CO)NC(C)=O)C(=O)N[C@@H](Cc1ccccc1)C(=O)N[C@@H](CC(=O)O)C(N)=O | 76.7 | 5
CC[C@H](C)[C@H](NC(=O)CNC(=O)[C@@H]1CCCN1C(=O)[C@@H](Cc1c[nH]c2ccccc12)NC(=O)[C@H](Cc1c[nH]c2ccccc12)NC(=O)[C@H](CCCCN)NC(=O)[C@H](Cc1c[nH]c2ccccc12)NC(=O)[C@H](CC(N)=O)NC(=O)[C@H](CO)NC(C)=O)C(=O)N[C@@H](Cc1ccccc1)C(=O)N[C@@H](CC(=O)O)C(N)=O | 8.4 | –
CC[C@H](C)[C@H](NC(=O)CNC(=O)[C@@H]1CCCN1C(=O)[C@H](Cc1c[nH]c2ccccc12)NC(=O)[C@H](Cc1c[nH]c2ccccc12)NC(=O)[C@H](CCCCN)NC(=O)[C@@H](Cc1c[nH]c2ccccc12)NC(=O)[C@H](CC(N)=O)NC(=O)[C@H](CO)NC(C)=O)C(=O)N[C@@H](Cc1ccccc1)C(=O)N[C@@H](CC(=O)O)C(N)=O | 41.1 | –
CC[C@H](C)[C@H](NC(=O)CNC(=O)[C@H]1CCCN1C(=O)[C@H](Cc1c[nH]c2ccccc12)NC(=O)[C@H](Cc1c[nH]c2ccccc12)NC(=O)[C@H](CCCCN)NC(=O)[C@H](Cc1c[nH]c2ccccc12)NC(=O)[C@H](CC(N)=O)NC(=O)[C@H](CO)NC(C)=O)C(=O)N[C@@H](Cc1ccccc1)C(=O)N[C@@H](CC(=O)O)C(N)=O | 25.7 | –
CC[C@H](C)[C@H](NC(=O)[C@@H](C)NC(=O)[C@@H]1CCCN1C(=O)[C@H](Cc1c[nH]c2ccccc12)NC(=O)[C@H](Cc1c[nH]c2ccccc12)NC(=O)[C@H](CCCCN)NC(=O)[C@H](Cc1c[nH]c2ccccc12)NC(=O)[C@H](CC(N)=O)NC(=O)[C@H](CO)NC(C)=O)C(=O)N[C@@H](Cc1ccccc1)C(=O)N[C@@H](CC(=O)O)C(N)=O | 16.3 | –
Ac-KWWPGIFD-NH2 | 5.4 | –
Ac-NWKWWPGIFD-NH2 | 78.2 | 5
Ac-SNAKWWPGIFD-NH2 | -4 | –
Ac-SNWKWWPG-NH2 | 5.9 | –
Ac-SNWKWWPGI-NH2 | 7.4 | –
Ac-SNWKWWPGIF-NH2 | 57.4 | 14.6
Ac-SNWKWWPGIFA-NH2 | 67.8 | 15.6
Ac-WKWWPGIFD-NH2 | 81.2 | 2.9

Now from value to compound:

inhibition [1] [%] | IC50 [2] [µM] | Compound
80.7 | 4.5 | CC[C@H](C)[C@H](NC(=O)CNC(=O)[C@@H]1CCCN1C(=O)[C@H](Cc1c[nH]c2ccccc12)NC(=O)[C@H](Cc1c[nH]c2ccccc12)NC(=O)[C@H](CCCCN)NC(=O)[C@H](Cc1c[nH]c2ccccc12)NC(=O)[C@@H](CC(N)=O)NC(=O)[C@H](CO)NC(C)=O)C(=O)N[C@@H](Cc1ccccc1)C(=O)N[C@@H](CC(=O)O)C(N)=O
64.9 | 11.5 | CC[C@H](C)[C@H](NC(=O)[C@H](C)NC(=O)[C@@H]1CCCN1C(=O)[C@H](Cc1c[nH]c2ccccc12)NC(=O)[C@H](Cc1c[nH]c2ccccc12)NC(=O)[C@H](CCCCN)NC(=O)[C@H](Cc1c[nH]c2ccccc12)NC(=O)[C@H](CC(N)=O)NC(=O)[C@H](CO)NC(C)=O)C(=O)N[C@@H](Cc1ccccc1)C(=O)N[C@@H](CC(=O)O)C(N)=O
83.2 | 4.4 | CC[C@H](C)[C@H](NC(=O)CNC(=O)[C@@H]1CCCN1C(=O)[C@H](Cc1c[nH]c2ccccc12)NC(=O)[C@H](Cc1c[nH]c2ccccc12)NC(=O)[C@H](CCCCN)NC(=O)[C@H](Cc1c[nH]c2ccccc12)NC(=O)[C@H](CC(N)=O)NC(=O)[C@@H](CO)NC(C)=O)C(=O)N[C@@H](Cc1ccccc1)C(=O)N[C@@H](CC(=O)O)C(N)=O
33.2 | – | CC[C@H](C)[C@@H](NC(=O)CNC(=O)[C@@H]1CCCN1C(=O)[C@H](Cc1c[nH]c2ccccc12)NC(=O)[C@H](Cc1c[nH]c2ccccc12)NC(=O)[C@H](CCCCN)NC(=O)[C@H](Cc1c[nH]c2ccccc12)NC(=O)[C@H](CC(N)=O)NC(=O)[C@H](CO)NC(C)=O)C(=O)N[C@@H](Cc1ccccc1)C(=O)N[C@@H](CC(=O)O)C(N)=O
6.4 | – | CC[C@H](C)[C@H](NC(=O)CNC(=O)[C@@H]1CCCN1C(=O)[C@H](Cc1c[nH]c2ccccc12)NC(=O)[C@@H](Cc1c[nH]c2ccccc12)NC(=O)[C@H](CCCCN)NC(=O)[C@H](Cc1c[nH]c2ccccc12)NC(=O)[C@H](CC(N)=O)NC(=O)[C@H](CO)NC(C)=O)C(=O)N[C@@H](Cc1ccccc1)C(=O)N[C@@H](CC(=O)O)C(N)=O
9.9 | – | CC[C@H](C)[C@H](NC(=O)CNC(=O)[C@@H]1CCCN1C(=O)[C@H](Cc1c[nH]c2ccccc12)NC(=O)[C@H](Cc1c[nH]c2ccccc12)NC(=O)[C@@H](CCCCN)NC(=O)[C@H](Cc1c[nH]c2ccccc12)NC(=O)[C@H](CC(N)=O)NC(=O)[C@H](CO)NC(C)=O)C(=O)N[C@@H](Cc1ccccc1)C(=O)N[C@@H](CC(=O)O)C(N)=O
78.2 | 6.3 | Ac-ANWKWWPGIFD-NH2
82.2 | 4.3 | Ac-SAWKWWPGIFD-NH2
78.2 | 8.5 | Ac-SNWAWWPGIFD-NH2
-5.4 | – | Ac-SNWKAWPGIFD-NH2
58.9 | 10 | Ac-SNWKWWAGIFD-NH2
11.4 | – | Ac-SNWKWWP-NH2
9.9 | – | Ac-SNWKWWPGAFD-NH2
11.4 | – | Ac-SNWKWWPGIAD-NH2
85.6 | 3.6 | Ac-WKWWPGIF-NH2
5 | – | Ac-WWPGIFD-NH2
